The target of the assay is T1, human P2X4 (Homo sapiens, UniProt Q99571).
T1 sequence (Q99571 1-388): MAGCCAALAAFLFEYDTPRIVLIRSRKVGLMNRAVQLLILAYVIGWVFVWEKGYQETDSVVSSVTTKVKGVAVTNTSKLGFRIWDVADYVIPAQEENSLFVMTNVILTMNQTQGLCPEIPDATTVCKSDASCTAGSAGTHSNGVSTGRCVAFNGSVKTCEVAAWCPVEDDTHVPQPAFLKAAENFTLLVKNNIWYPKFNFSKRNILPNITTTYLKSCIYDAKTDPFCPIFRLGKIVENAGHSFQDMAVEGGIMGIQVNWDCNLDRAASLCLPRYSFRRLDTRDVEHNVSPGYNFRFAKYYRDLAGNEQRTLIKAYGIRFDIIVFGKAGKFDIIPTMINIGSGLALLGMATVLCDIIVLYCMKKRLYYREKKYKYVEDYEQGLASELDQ
Description: Human P2X4 HEK Cell FLIPR Assay. Particulars: agonist Bz-ATP at EC80; for Emax: HEK293, HEK293 cells, percentage of maximal inhibition, read-out: Human P2X4 HEK Cells (FLIPR Assay) avg Efficacy [%]; for pIC50: HEK293 cells, individual values listed where some fall outside detection range. Type of assay: cell-based. A digest of the protocol:
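HEK293 cells stably expressing human P2X4, Fluo8-AM loaded 30 min at 37° C, then compound 30 min at room temperature (0.5% DMSO, pH 7.4 buffer with 1.8 mM CaCl2). Bz-ATP at its daily-determined EC80 added; calcium fluorescence read over 120 sec; IC50 from peak RFU normalized to agonist control, triplicates.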

Structures are written as SMILES. pIC50: −log10 of the molar value.

What is called pIC50 is the negative decadic logarithm of the IC50, by convention in mol/L. Read a high pIC50 as a low IC50. With `COc1ccccc1CC(=O)Nc1ccc(-c2cnn(C(F)F)c2)c(S(N)(=O)=O)c1` [Example 226, N-{4-[1-(Difluoromethyl)-1H-pyrazol-4-yl]-3-sulfamoylphenyl}-2-(2-methoxyphenyl)-acetamide], the Emax amounted to 104% and the pIC50 was 6.95.

Turning to `NS(=O)(=O)c1cc(NC(=O)Cc2ccc(F)cc2)ccc1-c1cnn(C(F)F)c1` [Example 227, N-{4-[1-(Difluoromethyl)-1H-pyrazol-4-yl]-3-sulfamoylphenyl}-2-(4-fluorophenyl)-acetamide], the Emax turned out to be 95% and the negative logarithm of the IC50 (pIC50) was 6.39.

For the compound `NS(=O)(=O)c1cc(NC(=O)Cc2cc(F)ccc2Cl)ccc1-c1cnn(C(F)F)c1` [Example 228, 2-(2-Chloro-5-fluorophenyl)-N-{4-[1-(difluoromethyl)-1H-pyrazol-4-yl]-3-sulfamoyl-phenyl}acetamide], the Emax stood at 92% and the pIC50 was 7.43.

As for `NS(=O)(=O)c1cc(NC(=O)Cc2cccc(Cl)c2Cl)ccc1-c1cnn(C(F)F)c1` [Example 229, 2-(2,3-Dichlorophenyl)-N-{4-[1-(difluoromethyl)-1H-pyrazol-4-yl]-3-sulfamoylphenyl}-acetamide], the Emax is 94% and the pIC50 is 7.80.

On to `NS(=O)(=O)c1cc(NC(=O)Cc2ccncc2Cl)ccc1-c1cnn(C(F)F)c1` [Example 230, 2-(3-Chloropyridin-4-yl)-N-{4-[1-(difluoromethyl)-1H-pyrazol-4-yl]-3-sulfamoyl-phenyl}acetamide], for which the Emax was 90% and the pIC50 was 6.45.

As for `NS(=O)(=O)c1cc(NC(=O)Cc2ccccc2Cl)ccc1-n1cnc(C2CCC2)n1` [Example 231, 2-(2-Chlorophenyl)-N-[4-(3-cyclobutyl-1H-1,2,4-triazol-1-yl)-3-sulfamoylphenyl]-acetamide], the Emax turned out to be 81% and the pIC50 was 7.29.

On to `CC(=O)c1cnn(-c2ccc(NC(=O)Cc3ccccc3Cl)cc2S(N)(=O)=O)c1` [Example 232, N-[4-(4-Acetyl-1H-pyrazol-1-yl)-3-sulfamoylphenyl]-2-(2-chlorophenyl)acetamide], for which the Emax turned out to be 89% and the pIC50 was 7.09.

`CC(C)c1ncn(-c2ccc(NC(=O)Cc3ccccc3Cl)cc2S(N)(=O)=O)n1` [Example 233, 2-(2-Chlorophenyl)-N-[4-(3-isopropyl-1H-1,2,4-triazol-1-yl)-3-sulfamoylphenyl]-acetamide]: the Emax turned out to be 80% and the pIC50 is 7.03.

With `NS(=O)(=O)c1cc(NC(=O)Cc2ccccc2C(F)(F)F)ccc1-n1cc(Cl)cn1` [Example 234, N-[4-(4-Chloro-1H-pyrazol-1-yl)-3-sulfamoylphenyl]-2-[2-(trifluoromethyl)-phenyl]acetamide], the Emax is 96% and the pIC50 is 7.03.

With `CCOC(=O)c1cnn(-c2ccc(NC(=O)Cc3ccccc3Cl)cc2S(N)(=O)=O)c1` [Example 235, Ethyl 1-(4-{[(2-chlorophenyl)acetyl]amino}-2-sulfamoylphenyl)-1H-pyrazole-4-carboxylate], the Emax amounted to 35% and the pIC50 was less than 4.60.

In the case of `CCOC(=O)c1cnn(-c2ccc(NC(=O)Cc3ccccc3F)cc2S(N)(=O)=O)c1` [Example 236, Ethyl 1-(4-{[(2-fluorophenyl)acetyl]amino}-2-sulfamoylphenyl)-1H-pyrazole-4-carboxylate], the Emax amounted to 54% and the pIC50 is 7.44.

As for `CC(C)(O)c1cnn(-c2ccc(NC(=O)Cc3ccccc3F)cc2S(N)(=O)=O)c1` [Example 237, 2-(2-Fluorophenyl)-N-{4-[4-(2-hydroxypropan-2-yl)-1H-pyrazol-1-yl]-3-sulfamoyl-phenyl}acetamide], the Emax was found to be 72% and the pIC50 is 5.72.

For `CC(C)(O)c1cnn(-c2ccc(NC(=O)Cc3ccccc3Cl)cc2S(N)(=O)=O)c1` [Example 238, 2-(2-Chlorophenyl)-N-{4-[4-(2-hydroxypropan-2-yl)-1H-pyrazol-1-yl]-3-sulfamoyl-phenyl}acetamide], the Emax turned out to be 76% and the pIC50 is 6.17.

Take `NS(=O)(=O)c1cc(NC(=O)Cc2cccnc2Cl)ccc1-n1cnc(C(F)(F)F)n1` [Example 239, 2-(2-Chloropyridin-3-yl)-N-{3-sulfamoyl-4-[3-(trifluoromethyl)-1H-1,2,4-triazol-1-yl]phenyl}acetamide]: the Emax was found to be 81% and the pIC50 was 5.59.

Regarding `CN(C(=O)Cc1ccccc1Cl)c1ccc(-n2cc(C(F)(F)F)cn2)c(S(N)(=O)=O)c1` [Example 240, 2-(2-Chlorophenyl)-N-methyl-N-{3-sulfamoyl-4-[4-(trifluoromethyl)-1H-pyrazol-1-yl]phenyl}acetamide], the Emax was determined as 93% and the pIC50 was 5.46.

Turning to `NS(=O)(=O)c1cc(NC(=O)Cc2ccccc2Cl)ccc1-n1ncc(C(F)(F)F)n1` [Example 241, 2-(2-Chlorophenyl)-N-{3-sulfamoyl-4-[4-(trifluoromethyl)-2H-1,2,3-triazol-2-yl]-phenyl}acetamide], the Emax was 92% and the pIC50 is 7.32.

Regarding `NS(=O)(=O)c1cc(NC(=O)Cc2ccccc2Cl)ccc1-n1cc(C(F)(F)F)nn1` [Example 242, 2-(2-Chlorophenyl)-N-{3-sulfamoyl-4-[4-(trifluoromethyl)-1H-1,2,3-triazol-1-yl]-phenyl}acetamide], the Emax amounted to 86% and the pIC50 is 7.43.

With `N#Cc1ccc(Cl)c(CC(=O)Nc2ccc(-n3cc(C(F)(F)F)cn3)c(S(N)(=O)=O)c2)c1` [Example 243, 2-(2-Chloro-5-cyanophenyl)-N-{3-sulfamoyl-4-[4-(trifluoromethyl)-1H-pyrazol-1-yl]-phenyl}acetamide], the Emax came out at 87% and the pIC50 is 6.30.

On to `N#Cc1cc(NC(=O)Cc2ccccc2Cl)cc(S(N)(=O)=O)c1-n1cc(C(F)(F)F)cn1` [Example 244, 2-(2-Chlorophenyl)-N-{3-cyano-5-sulfamoyl-4-[4-(trifluoromethyl)-1H-pyrazol-1-yl]-phenyl}acetamide], for which the Emax is 73% and the pIC50 is 6.85.

As to `NS(=O)(=O)c1cc(NC(=O)Cc2cc(Br)ccc2Cl)ccc1-n1cc(C(F)(F)F)cn1` [Example 245, 2-(5-Bromo-2-chlorophenyl)-N-{3-sulfamoyl-4-[4-(trifluoromethyl)-1H-pyrazol-1-yl]phenyl}acetamide], the Emax worked out at 88% and the pIC50 was 6.32.

For the compound `NS(=O)(=O)c1cc(NC(=O)Cc2ccccc2F)ccc1-n1cnc(Cl)n1` [Example 246, N-[4-(3-Chloro-1H-1,2,4-triazol-1-yl)-3-sulfamoylphenyl]-2-(2-fluorophenyl)acetamide], the Emax came to 100% and the pIC50 was 6.60.

Take `N#Cc1cc(NC(=O)Cc2ccccc2Cl)cc(S(N)(=O)=O)c1-n1cc(F)cn1` [Example 247, 2-(2-Chlorophenyl)-N-[3-cyano-4-(4-fluoro-1H-pyrazol-1-yl)-5-sulfamoyl-phenyl]acetamide]: the Emax was 64% and the pIC50 is 7.16.

As to `Cc1cnn(-c2ccc(NC(=O)Cc3ccccc3Cl)cc2S(N)(=O)=O)c1` [Example 248, 2-(2-Chlorophenyl)-N-[4-(4-methyl-1H-pyrazol-1-yl)-3-sulfamoylphenyl]acetamide], the Emax worked out at 74% and the pIC50 was 7.08.

For the origin of these results see patent US11524938B2, “Aromatic sulfonamide derivatives” (Bayer Pharma Aktiengesellschaft, priority 2016, dated 2022).
